Measurements: PMC9820444, “Design and Synthesis of Acridine-Triazole and Acridine-Thiadiazole Derivatives and Their Inhibitory Effect against Cancer Cells” (International Journal of Molecular Sciences, 2022)
Read-outs that look alike come from different tables or passages of the source. Marks after values point to notes of the source that are not given here.

What was measured:
[1] = tested on: human foreskin fibroblasts (HFF); assay: MTT antiproliferative assay, HFF; assay type: cell-based; details: read-out: Effect against cell viability (IC50), HFF
Method: (§1) All newly synthesized acridinyl derivatives (4–6) were screened for their anticancer activities in comparison to the reference compounds, 5-FU and cis-platinum. Compounds 4–6 were tested for their in vitro antitumor activities against HFF, MGC-803, BEL-7404, NCI-H460, and T24 tumor cell lines, and human normal liver cells (LO2), and the results are shown in Table 1. Most of the compounds had strong selective potency against MGC-803 and T24 cancer cells. […] In the T24 cell line assay, many compounds, especially the series of compound 4, had significant activity against T24. This implies that there is a significant increase in potency after the introduction of the aroyl thiourea group. […] To our delight, most 1,2,4-triazolethiones (5) and 1,2,4-thiadiazoles (6) have low toxicity to LO2 compared with the positive control.
(§2) Test samples, including compounds 4–6 and commercial classical anticancer drugs (5-FU and cis-platinum), were screened for their anti-cancer activity against HFF human foreskin fibroblast cells, MGC-803 human gastric cancer cells, BEL-7404 human hepatocellular carcinoma cells, NCI-H460 human large cell carcinoma cells, and T24 human bladder carcinoma cells using the 3-(4,5-dimethylthiazol-2-yl)-2,5-diphenyltetrazoliumbromide (MTT) assay method cited in the literature. The initial concentration of all the test samples was 100 μg/mL, which was serially diluted in complete medium with ten-fold dilutions to give six concentrations per compound. Their cytotoxicity was determined in 96-well flat bottomed microtiter plates. All the test samples were tested in triplicate. The results were expressed as the drug concentration that inhibited cell growth by 50% as compared to the controls (IC50). The IC50 values were calculated from regression lines obtained from the percent cell growth inhibition plotted as a function of the logarithm of the dose.

[2] = tested on: human gastric cancer cells-803 (MGC-803); assay: MTT antiproliferative assay, MGC-803; assay type: cell-based; details: read-out: Effect against cell viability (IC50), MGC-803
Method: as §1, §2

[3] = tested on: hepatocellular carcinoma bel-7404 (BEL-7404); assay: MTT antiproliferative assay, BEL-7404; assay type: cell-based, human; details: read-out: Effect against cell viability (IC50), BEL-7404
Method: as §1, §2

[4] = tested on: large cell lung cancer cells (NCI-H460); assay: MTT antiproliferative assay, NCI-H460; assay type: cell-based, human; details: read-out: Effect against cell viability (IC50), NCI-H460
Method: as §1, §2

[5] = tested on: bladder cancer cells (T24); assay: MTT antiproliferative assay, T24; assay type: cell-based, human; details: read-out: Effect against cell viability (IC50), T24
Method: as §1, §2

[6] = tested on: human normal liver cells (LO2); assay: Cytotoxicity against normal liver cells LO2; assay type: cell-based; details: MTT, read-out: Effect against cell viability (IC50), LO2
Method: as §1, §2

[7] = tested on: zebrafish embryos; parameters: mortality rate of zebrafish embryos: dose or concentration left out as unconfirmed; details: for MAR (malformation rate) / MOR (mortality rate): zebrafish embryos 72 hpf; for total mortality and malformation rate: zebrafish embryos
Method: In this experiment, 2% DMSO was used to dissolve the target products, and the abnormal rate (MAR) and mortality rate (MOR) of zebrafish embryos (72 hpf) were used for statistics.
The zebrafish embryos were collected at 6 hpf and randomly divided into naive control (embryos maintained in distilled water), vehicle control (embryos treated with 2% DMSO), and drug groups. Stock solutions of all drugs were prepared in 2% DMSO as a solubilizing agent and diluted to three concentrations (0.5 mg/mL, 1 mg/mL, and 2 mg/mL). Each group had 20 embryos per test concentration. […] Each compound was evaluated in three independent biological experiments.

Row | Compound | IC50 [1] [µM] | IC50 ([2]; MTT) [µM] | IC50 [3] [µM] | IC50 [4] [µM] | IC50 [5] [µM] | IC50 [6] [µM] | MAR (malformation rate) ([7]; 1 mg/mL) | MOR (mortality rate) ([7]; 1 mg/mL) | MAR (malformation rate) ([7]; 1.5 mg/mL) | MOR (mortality rate) ([7]; 1.5 mg/mL) | MAR (malformation rate) ([7]; 2 mg/mL) | MOR (mortality rate) ([7]; 2 mg/mL) | IC50 ([1]; Homo sapiens, Fibroblast) [µM] | IC50 ([2]; Homo sapiens, MGC-803, MTT) [µM] | IC50 ([3]; Homo sapiens) [µM] | IC50 ([4]; Homo sapiens) [µM] | IC50 ([5]; Homo sapiens) [µM] | IC50 ([6]; Homo sapiens) [µM] | melting point [°C] | also measured
1 | COc1ccc2nc3ccccc3c(NC(=S)NNC(=O)c3ccccc3)c2c1 [4b, 1-2′-methoxyl acridinyl-3-benzoyl thiosemicarbazides] | 72.6 ± 3.57 | 14.5 ± 2.06 | 25.8 ± 2.83 | 42.3 ± 2.15 | 29.8 ± 2.85 | 34.4 ± 2.05 | 70% ^a | 15% ^a | 70% ^a | 15% ^a | 55% ^a | 40% ^a |  |  |  |  |  |  |  | total mortality and malformation rate ([7]; 2.0 mg.L^−1): 100%
2 | COc1ccc(C(=O)NNC(=S)Nc2c3ccccc3nc3ccc(OC)cc23)cc1 [4c, 1-2′-methoxyl acridinyl-3-4′-methoxy benzoyl thiosemicarbazides] | 63.7 ± 2.59 | 21 ± 1.55 | 13.3 ± 1.37 | 52.4 ± 3.67 | 11.2 ± 2.51 | 19.4 ± 1.69 | 50% ^a | 45% ^a | 60% ^a | 25% ^a | 50% ^a | 35% ^a |  |  |  |  |  |  |  | 
3 | COc1ccc2nc3ccccc3c(NC(=S)NNC(=O)c3ccc([N+](=O)[O-])cc3)c2c1 [4d, 1-2’-methoxyl acridinyl-3-4′-nitro benzoyl thiosemicarbazides] | 65.3 ± 3.82 | 35 ± 3.57 | 43.9 ± 2.59 | 40.5 ± 4.52 | 13 ± 1.64 | 25.1 ± 1.33 |  |  |  |  |  |  |  |  |  |  |  |  |  | 
4 | Cc1ccc2[nH]c3ccccc3c(=NC(=S)NNC(=O)c3ccncc3)c2c1 [4f, 1-2′-methyl acridinyl-3-4′-pyridinamide thiourea] | 55.2 ± 1.36 | 11.2 ± 0.96 | 34.4 ± 2.24 | 53.7 ± 3.04 | 9.66 ± 1.54 | 10.1 ± 0.96 | 60% ^b | 10% ^b | 80% ^b | 20% ^b | 15% ^b | 85% ^b |  |  |  |  |  |  |  | total mortality and malformation rate ([7]; 2.0 mg.L^−1): 100%
5 | Cc1ccc2nc3ccccc3c(NC(=S)NNC(=O)c3ccccc3)c2c1 [4g, 1-2′-methyl acridinyl-3-benzoyl thiosemicarbazides] | 70.1 ± 3.97 | 13.5 ± 1.59 | 20.2 ± 4.13 | 39 ± 2.05 | 25.8 ± 1.51 | 14.3 ± 1.52 |  |  |  |  |  |  |  |  |  |  |  |  |  | 
6 | Cc1ccc2nc3ccccc3c(NC(=S)NNC(=O)c3ccc([N+](=O)[O-])cc3)c2c1 [4i, 1-2′-methyl acridinyl-3-4’-nitro benzoyl thiosemicarbazides] | 60.7 ± 2.31 | 22.3 ± 1.35 | 23.3 ± 1.33 | 60.4 ± 2.95 | 9.89 ± 1.45 | 11.8 ± 1.38 |  |  |  |  |  |  |  |  |  |  |  |  |  | 
7 | Cc1ccc2nc3ccccc3c(NC(=S)NNC(=O)c3ccc(Cl)cc3)c2c1 [4j, 1-2′-methyl acridinyl-3-4′-chloro benzoyl thiosemicarbazides] | 61.5 ± 1.85 | 16.4 ± 1.56 | 24.4 ± 3.53 | 32.2 ± 2.36 | 19.9 ± 1.32 | 20.5 ± 1.39 |  |  |  |  |  |  |  |  |  |  |  |  |  | 
8 | O=c1[nH]cc(F)c(=O)[nH]1 [5-FU, 5-fluorouracil, reference compound] |  |  |  |  |  |  |  |  |  |  |  |  | 25.4 ± 1.27 | 30.4 ± 2.87 | 34.5 ± 1.18 | 44 ± 0.54 | 32 ± 1.23 | 40.1 ± 1.65 |  | 
9 | COc1ccc2nc3ccccc3c(-n3c(-c4ccncc4)n[nH]c3=S)c2c1 [5a, 4-(2-methoxyacridin-9-yl)-5-(pyridin-4-yl)-2,4-dihydro-3H-1,2,4-triazole-3-thione] |  |  |  |  |  |  |  |  |  |  |  |  | 74.5 ± 4.03 | 22.4 ± 1.32 | 22.1 ± 2.72 | 36.5 ± 2.96 | 21.2 ± 2.72 | 42 ± 2.31 | 272 to 273 | 
10 | COc1ccc2nc3ccccc3c(-n3c(-c4ccccc4)n[nH]c3=S)c2c1 [5b, 4-(2-methoxyacridin-9-yl)-5-phenyl-2,4-dihydro-3H-1,2,4-triazole-3-thione] |  |  |  |  |  |  |  |  |  |  |  |  | 53.6 ± 2.78 | 15.8 ± 1.94 | 27.7 ± 2.97 | 42.1 ± 3.74 | 22.1 ± 1.85 | 58.3 ± 3.25 | 259 to 261 | 
11 | Cc1ccc2nc3ccccc3c(-n3c(-c4ccncc4)n[nH]c3=S)c2c1 [5f, 4-(2-methylacridin-9-yl)-5-(pyridin-4-yl)-2,4-dihydro-3H-1,2,4-triazole-3-thione] |  |  |  |  |  |  |  |  |  |  |  |  | 69.2 ± 2.16 | 15.2 ± 1.08 | 44.2 ± 2.68 | 58.8 ± 3.22 | 15.7 ± 1.58 | 46.8 ± 2.93 | 264 to 268 | 
12 | Cc1ccc2nc3ccccc3c(-n3c(-c4ccccc4)n[nH]c3=S)c2c1 [5g, 4-(2-methylacridin-9-yl)-5-phenyl-2,4-dihydro-3H-1,2,4-triazole-3-thione] |  |  |  |  |  |  |  |  |  |  |  |  | 68.3 ± 2.74 |  | 20.5 ± 1.13 | 30.6 ± 2.21 | 19.4 ± 2.17 | 44.6 ± 2.35 | 292 to 293 | 
13 | Cc1ccc2nc3ccccc3c(-n3c(-c4ccc([N+](=O)[O-])cc4)n[nH]c3=S)c2c1 [5i, 4-(2-methylacridin-9-yl)-5-(4-nitrophenyl)-2,4-dihydro-3H-1,2,4-triazole-3-thione] |  |  |  |  |  |  |  |  |  |  |  |  | 70.9 ± 2.99 | 8.92 ± 0.99 | 31.7 ± 2.36 | 28.3 ± 1.32 | 14.3 ± 1.27 | > 100 | 245 to 247 | 
14 | COC1=CC2C(=Nc3nnc(-c4ccncc4)s3)c3ccccc3NC2C=C1 (stereo not shown) [6a, 7-methoxy-N-(5-(pyridin-4-yl)-1,3,4-thiadiazol-2-yl)-10,10a-dihydroacridin-9(8aH)-imine] |  |  |  |  |  |  | 15% ^b | 0% | 95% ^b | 0% | 90% ^b | 5% ^b | 68.8 ± 1.87 | 14.3 ± 1.29 | 19.2 ± 1.3 | 25.3 ± 3.57 | 10.2 ± 0.96 | 40.2 ± 2.74 |  | 
15 | COC1=CC2C(=Nc3nnc(-c4ccccc4)s3)c3ccccc3NC2C=C1 (stereo not shown) [6b, 7-methoxy-N-(5-phenyl-1,3,4-thiadiazol-2-yl)-10,10a-dihydroacridin-9(8aH)-imine] |  |  |  |  |  |  |  |  |  |  |  |  | 79.3 ± 2.48 | 23.3 ± 1.97 | 32.3 ± 2.82 | 47.5 ± 3.51 | 49.4 ± 4.59 | > 100 | 263 to 265 | 
16 | COC1=CC2C(=Nc3nnc(-c4ccc(Cl)cc4)s3)c3ccccc3NC2C=C1 (stereo not shown) [6e, 7-methoxy-N-(5-(4-chlorophenyl)-1,3,4-thiadiazol-2-yl)-10,10a-dihydroacridin-9(8aH)-imine] |  | 9.01 ± 1.32 |  |  |  |  | 10% ^c | 10% ^c | 70% ^c | 30% ^c | 35% ^c | 65% ^c | 44.7 ± 1.44 | 9.95 ± 1.03 | 21.3 ± 2.81 | 27.9 ± 3.97 | 14.9 ± 1.3 | 33.6 ± 2.01 |  | 
17 | CC1=CC2C(=Nc3nnc(-c4ccc([N+](=O)[O-])cc4)s3)c3ccccc3NC2C=C1 (stereo not shown) [6i, 7-methyl-N-(5-(4-nitrophenyl)-1,3,4-thiadiazol-2-yl)-10,10a-dihydroacridin-9(8aH)-imine] |  |  |  |  |  |  | 0% | 0% | 10% ^b | 0% | 25% ^c | 0% | 92 ± 2.99 | 22.9 ± 1.85 | 43.7 ± 2.36 | 36.4 ± 3.15 | 29.9 ± 2.45 | > 100 |  | mortality rate of zebrafish embryos [7]: 0%; malformation rate of zebrafish embryos ([7]; 2.0 mg.L^−1): 25%
18 | N.N.[Cl][Pt][Cl] [cis-platinum, reference compound] | 10.8 ± 0.34 | 16 ± 1.53 | 10 ± 0.52 | 7.13 ± 1.24 | 9.13 ± 1.54 | 21.4 ± 1.25 |  |  |  |  |  |  |  |  |  |  |  |  |  | 
